According to patent publication US6352966B1, “Cleansing bars” (Albemarle Corporation, priority 2000, dated 2002):

Experiments:
Format in all cases: physicochemical
[1] = Surface tension in ionic buffer solution; conditions: 0.02 normal aqueous potassium nitrate solution at 25° C.
Text: Also shown in Table 1 are the corresponding values for the partially neutralized monosodium salts of the corresponding alk(en)yl succinic acids.

[2] = Reflectance of cleansing bars; conditions: bar; the higher the reflectance the whiter the bar
Experimental: (§1) The desirable properties of cleansing bars formed from fully neutralized sodium salts of various alkenyl succinic acids of this invention were determined in a further series of comparative tests. In these tests both the reflectance and the bar hardness were determined. In addition to testing bars of five different fully neutralized succinate salts of this invention, the same properties were measured on four fully compounded commercial soap bars from different well-known soap manufacturers. As can be appreciated, the higher the reflectance the whiter the bar, and the higher the hardness, the more desirable is the bar. In Table 2, the five fully neutralized alkenyl succinic acids are identified in terms of the number of carbon atoms in the alkenyl group. Thus, for example, C6 SAS represents the fully neutralized disodium salt of n-hexenyl succinic acid. As regards reflectance, Commercial Bar B is pink in color, and Commercial Bar C is a coral-orange in color. The other two commercial bars are white.

[3] = Bar hardness of cleansing bars; conditions: the higher the hardness, the more desirable
Experimental: as §1

## CCCCCCCCC(CC(=O)O)C(=O)[O-].[Na+] (stereo not drawn) [Monosodium n-octylsuccinate, reference compound]
[1]
  surface tension: 26.64 millinewtons per meter

## CCCCCCCCCCC(CC(=O)[O-])C(=O)[O-].[Na+].[Na+] (stereo not drawn) [Disodium n-decylsuccinate]
[1]
  surface tension: 26 millinewtons per meter

## Monosodium n-tetradecenylsuccinate [reference compound]
[1]
  surface tension: 26 millinewtons per meter

## Monosodium n-dodecenylsuccinate [reference compound]
[1]
  surface tension: 26.32 millinewtons per meter

## Disodium n-dodecenylsuccinate
[2]
  Reflectance: 87
[3]
  Bar Hardness: 132
[1]
  surface tension: 25.8 millinewtons per meter

## CCCCCCCCCCC(CC(=O)O)C(=O)[O-].[Na+] (stereo not drawn) [Monosodium n-decylsuccinate, reference compound]
[1]
  surface tension: 26.32 millinewtons per meter

## CCCCCCCCC(CC(=O)[O-])C(=O)[O-].[Na+].[Na+] (stereo not drawn) [Disodium n-octylsuccinate]
[1]
  surface tension: 26 millinewtons per meter

## Disodium n-tetradecenylsuccinate
[2]
  Reflectance: 74
[3]
  Bar Hardness: 144
[1]
  surface tension: 26 millinewtons per meter
